Positions of bridges follow the written chain, without caps; N, C: chain ends. Non-standard residues stand in square brackets, D forms with d. Residues, ends and D or L forms follow the SMILES beside them. *: point of attachment. X1 = CC[C@H](C)CCCCC(=O)*; Dab = NCC[C@H](N)C(=O)O
What was measured:
[1] = Adverse effects (nephrotoxicity, neurotoxicity, skin) during polymyxin B treatment of renal transplant patients; format: in vivo, human
Method: (§1) The following data were collected: age; sex; weight; maintenance doses; time and route of administration; site of infection; microbes; comorbidities; liver function indexes, such as alanine aminotransferase (ALT), aspartate aminotransferase (AST), total bilirubin (TBIL), direct bilirubin (DBIL), and albumin (ALB); and renal function indexes, such as uric acid (UA), blood urea nitrogen (BUN), and CrCL. CrCL was calculated according to the Cockcroft-Gault equation ([Janmahasatian et al., 2005]). CrCL ≤80 ml/min was defined as renal dysfunction, and when the basic CrCL decreased by more than 25%, nephrotoxicity was defined. Risk, injury, failure, loss and end-stage renal disease criteria were used to define acute kidney injury (AKI) in patients ([Bellomo et al., 2004]). Neurotoxicity was defined when any neurological symptoms or signs occurred during polymyxin B treatment, including dizziness, vertigo, visual disturbances, confusion, hallucinations, ataxia, seizures, and facial and peripheral paresthesia. The observed AUC0–24h of patients was calculated by daily dose/CL.

[2] = cited from earlier work
From the text: It is well known that nephrotoxicity is the major adverse effect of polymyxin B, with a wide range from 26.9 to 60% ([Plachouras et al., 2009]; [Akajagbor et al., 2013]; [Dubrovskaya et al., 2015]; [Rigatto et al., 2015]). In the present study, however, the incidence of AKI was extremely low, with only five patients showing nephrotoxicity. As polymyxin B-induced nephrotoxicity is a dose-limiting adverse effect, our result seemed to be consistent with the previous finding that patients with renal impairment might have a lower incidence of AKI due to the decreased percentage of tubular reabsorpt ... || The incidence of neurotoxicity was much higher than noted before (62.0 vs 7%) and has become the dose-limiting factor in our study ([Arnold et al., 2007]). […] Considering their similar structures, this mechanism might also fit polymyxin B; therefore, the higher exposure of p ...

[3] = Population pharmacokinetic analysis of polymyxin B in renal transplant patients (plasma, HPLC-MS/MS, Phoenix NLME); format: in vivo, human
Method: This prospective study was approved by the Ethics Committee of the Second Xiangya Hospital, Central South University. Informed consent was obtained from all patients or legal representatives of the patients (No. ChiCTR1900022231). Renal transplant patients (aged ≥18 years) who received intravenous polymyxin B (sulfate; Polymyxin B for Injection, China, SPH NO.1 BIOCHEMICAL and PHARMACEUTICAL CO. LTA) for ≥48 h were enrolled. Patients were excluded if they were pregnant, allergic or intolerant to polymyxin B and lacked the necessary data (weight or some renal function index).
All patients accepted at least 3 days of polymyxin B infusion, and the administration interval of polymyxin B was 12 h with an infusion duration of 60–120 min. One to six blood samples (2 mL) were randomly collected 30 min before the sixth dose of polymyxin B and at 0, 0.5, 1, 2, 4, 6, and 8 h after the end of infusion. Blood samples were centrifuged for 10 min (3,400 rpm/min), and the supernatant was immediately stored at −80°C until analysis. A validated high-performance liquid chromatography-tandem mass spectrometry (HPLC-MS/MS) was used to measure the concentrations of polymyxin B1 and polymyxin B2 ([Thomas et al., 2012]). Briefly, a Shim-pack GIST C18 (2.1*100 mm, 3 μm, Shimadzu) column was used. Gradient chromatography was performed with solvent A (0.1% formic acid in water) and solvent B (acetonitrile). The following gradient elution was performed at a total flow of 0.6 ml/min for analyte elution: 10–60% B from 0 to 5 min, 60%–90% B from five to 5.10 min, 90% from 5.10 to 6 min, 90%–10% B from six to 6.10 min, and 10% B from 6.10 to 10.0 min. The elution time was 10 min, and the injection volume was 2 μL. The interday precision was <12%, the intraday precision was <9%, and the accuracy ranged from 96.1 to 110.4%. The limit of quantification was 0.03 mg/L.
as §1
The concentration-time data of polymyxin B were analyzed with a nonlinear mixed effect modeling approach with the Phoenix NLME program (version 8.1. Pharsight, A Certara Company, United States of America). The first-order conditional estimation-extended least square method (FOCE-ELS) was used to develop the PPK model. One- and two-compartment models with linear elimination were evaluated for structure model selection based on the objective function value (OFV) and Akaike information criterion (AIC). The interindividual variability of PK parameters was described by an exponential error model. Residual variability was selected with an additive error model, proportional error model and combined error model. The covariates considered for the modeling included age, weight, ALT, AST, TBIL, DBIL, ALB, BUN, UA, and CrCL. The median of the covariate was used to normalize the covariate, and a stepwise method was used to screen the covariates. […]

[4] = cited from earlier work; remark: listed apart in the source
Method: According to the results from previous pharmacokinetics and pharmacodynamics (PK/PD) studies, the bactericidal activity of polymyxin B is best correlated with the area under the concentration-time curve over 24 h in steady state divided by the minimum inhibitory concentration (AUC0–24h/MIC) ([Mohamed et al., 2012]). Moreover, the latest guidelines recommended a target plasma AUC0–24h of 50–100 mg⋅h/L to achieve bactericidal activity against an isolate with an MIC of 2 mg/L (the EUCAST and CLSI breakpoints) ([Tsuji et al., 2019]). However, due to the lack of rigorous PK data, the optimal dosing ... || Monte Carlo simulations (n = 1,000) were conducted using metrics to determine the PTA for fAUC0–24h/MIC ≥20 at various MICs (0.5–2 mg/L) in patients with different renal functions (CrCL: 10–80 ml/min), where f is the unbound fraction of polymyxin B (assumed to be 0.42) ([Sandri et al., 2013b]). The dosages were selected according to the most commonly used regimens in renal transplant patients. The regimens were as follows with a 2 h infusion: a single 50 mg loading dose followed by either 30 mg every 12 h or 40 mg every 12 h, either a loading dose of 75 mg or 100 mg followed by 50 mg every 12 ... || In the present study, a one-compartment model was used to describe the original data, which was consistent with some of the previous studies ([Kubin et al., 2018]; [Manchandani et al., 2018]). […] This difference might be mainly due to impaired renal function in the renal transplant patients in this study (CrCL: 20.89 ml/min, range: 4.29–78.84 ml/min) because we identified CrCL as a significant predic ... || (+ 1 further places)

[5] = rats, 6 h after dosing; ref Manchandani et al., 2015; cited from earlier work
Method: Polymyxin B is mainly distributed in the kidney, and the renal tissue/serum concentration ratio of polymyxin B was 19.62 at 6 h after dosing in rats ([Manchandani et al., 2015]). Therefore, the variation in polymyxin B accumulation in the kidney might be responsible for the differences in the apparent volume of distribution. In addition t ...

[6] = of 50 renal transplant patients
[7] = patients of previous studies, ref Kubin et al., 2018, Manchandani et al.

## CC[C@H](C)CCCCC(=O)N[C@@H](CCN)C(=O)N[C@H](C(=O)N[C@@H](CCN)C(=O)N[C@H]1CCNC(=O)[C@H]([C@@H](C)O)NC(=O)[C@H](CCN)NC(=O)[C@H](CCN)NC(=O)[C@H](CC(C)C)NC(=O)[C@@H](Cc2ccccc2)NC(=O)[C@H](CCN)NC1=O)[C@@H](C)O [polymyxin B] (X1-[Dab]T[Dab][Dab][Dab][dF]L[Dab][Dab]T; lactam 4-C)
[1]; 50 renal transplant patients
  incidence of dermatitis: 34.0%
  incidence of neurotoxicity: 62.0%
[1]; [6]
  nephrotoxicity classified as injury (RIFLE): one
  nephrotoxicity classified as risk (RIFLE): four
  patients with dermatitis: Seventeen
  patients with dizziness: three
  patients with facial and peripheral paresthesia: 29 patients
  patients with nephrotoxicity (basic CrCL decreased by more than 25%): five
  patients with neurotoxicity of different degrees: 31 patients
  patients with seizures: three
[1]; of 50 renal transplant patients, all disappeared 1 month after withdrawal
  patients with pigmentation: Seven
[1]; renal transplant patients
  days printed for the nephrotoxicity case classified as injury: 11 days
  days printed for the nephrotoxicity cases (all five): 3 to 11 days
  days printed for the nephrotoxicity cases classified as risk: 3 to 7 days
[2]; ref Arnold et al., 2007
  incidence of neurotoxicity noted before: 7%
[2]; ref Plachouras et al., 2009, Akajagbor et al., 2013, Dubrovskaya et al., 2015, Rigatto et al., 2015
  incidence of nephrotoxicity (range of previous reports): 26.9 to 60%
[3]; bootstrap, 1000 resamples
  CL, bootstrap median: 1.17 L/h
  V, bootstrap median: 11.98 L
  Θ CrCL, bootstrap median: 0.14
[3]; calculated by daily dose/CL, mean ± SD, SD
  mean AUC0–24h (observed): 74600 ± 17810 ng·h/mL
[3]; final PPK model
  Θ CrCL (exponent for CrCL as a covariate for CL), final model estimate: 0.14
[3]; human, intravenous q 12 h, one-compartment PPK model, 151 plasma samples from 50 patients, HPLC-MS/MS, read-out: V, final model estimate
  Vd: 12.1 L
[3]; human, intravenous q 12 h, one-compartment PPK model, typical value at CrCL 22.2 ml/min, 151 plasma samples from 50 patients, read-out: CL, final model estimate (converted)
  clearance: 19.7 mL/min
[4]; [7]
  CL reported in previous one-compartment models: 2.37 to 2.5 L/h
  V reported by previous studies: 34.3 to 34.4 L
[4]; previous study in patients, ref Sandri et al., 2013b
  urinary recovery (range between patients): 0.98–17.4%
[4]; ref Lakota et al., 2018
  patients achieving the AUC0–24h target at the recommended dosage: 71%
[4]; used for fAUC0–24h/MIC in the simulations, ref Sandri et al., 2013b
  unbound fraction f (assumed): 0.42
[5]
  renal tissue/serum concentration ratio: 19.62

Reference: PMC8424097, “Population Pharmacokinetics of Polymyxin B and Dosage Optimization in Renal Transplant Patients” (Frontiers in Pharmacology, 2021)
